According to patent publication EP4701641B1, “5-AMINO-2,3-DIHYDRO-1,4-PHTHAL[…] THE PROPHYLAXIS AND TREATMENT OF […]” (MetrioPharm AG, priority 2023, dated 2025):
Read-outs that look alike come from different tables or passages of the source.

Tests used:
[1] = system: Coronary artery smooth muscle cells; conditions: added 1 hour before stimulation with IL-1β, TNF-α and IFN-γ, 48 hours in culture, triplicates averaged
Protocol: Coronary artery smooth muscle cells pooled from human donors (n = 3) were commercially acquired and cultured according to the recommendations of the manufacturer. They were stimulated with IL-1β, TNF-α and IFN-γ to emulate conditions of vascular inflammation. The […] were cultured in 96 well-plates until confluence. Details are described in Kunkel et al. (2004) FASEB J 18: 1279-1281). […] The substance was added at the indicated concentration 1 hour before stimulation and remained in culture for 48 hours. Each plate contained positive and negative controls (non-stimulated cells) as well as vehicle controls (buffer solution). Direct ELISA (enzyme-linked immunosorbent assay) was used to measure thrombomodulin levels. Soluble factors from supernatants were quantified using capture ELISA.
Measurements were carried out in triplicates which were then averaged and divided by the average of vehicle control samples. Vehicle control samples were taken as 100%.

[2] = system: SARS-CoV-2; conditions: SARS-CoV-2 infected cells; from WO 2021/249667; cited from earlier work
[3] = system: D-dimer; conditions: for D-dimer concentration (median of the group): plasma
Excerpt: The study was randomized, double-blind, and placebo-controlled, with enrollment at 20 IEC (independent ethics committee)-approved sites across six countries (Bulgaria, France, Hungary, Italy Romania, Spain); a list of all participating sites is published on clinicaltrials.gov. (NCT04932941). This study was partially funded by the COVID-19 Horizon Europe work programme (Project No.: 101046182). The funder of the study had no role in study design, data collection, data analysis, data interpretation, or writing of the report.
Further details on the in- and exclusion criteria are available on cliniclatrials.gov NCT04932941.
Stratification factors included baseline COVID-19 severity and age-class (aged ≤ 65 years versus > 65 years).
Patients were treated for 28 days. […] These patients were discharged from the hospital before and received medication (verum or placebo) for continuing self-treatment for the remaining time at home. After 60 days there was a follow-up visit.
The D-dimer level is an important prognostic marker for COVID-19 severity. An elevated D-dimer level is associated with thromboembolic complications. For monitoring the development of this biomarker throughout the study blood samples were taken at Days 1, 7, 14, 21, 28 and 60. The D-dimer concentration was determined (PPD Central Lab, Zaventem, Belgium) from the plasma by means of monoclonal antibodies quantified in an ELISA (cf. Olson (2015) Adv Clin Chem 69: 1 - 46; Johnson et al. (2019) Am J Hematol 94: 833-839).

[4] = system: hospitalized patients with moderate to severe COVID-19

## Nc1cccc2c(=O)[nH][nH]c(=O)c12.[Na] [5-amino-2,3-dihydro-1,4-phthalazinedione sodium salt]
[1]; 62.5 µM
  thrombomodulin release (vehicle control = 100%): 127.4%
[1]; 250 µM
  thrombomodulin release (vehicle control = 100%): 115.1%
[1]; 1 mM
  thrombomodulin release (vehicle control = 100%): 159.6%
[1]; 4 mM
  thrombomodulin release (vehicle control = 100%): 255.9%
[2]
  replication of the virus: suppress dose-dependently
[3]; day 60 (follow-up visit)
  D-dimer concentration (median of the group): 138.0 ng/mL DDU
[3]; post-hoc analysis, modelled, p<0.001, Fig. 1
  modelled effect on D-dimer levels compared to placebo: significant decrease
[3]; treatment day 1, 300 mg BID plus SoC
  D-dimer concentration (median of the group): 235.5 ng/mL DDU
[3]; treatment day 7, 300 mg BID plus SoC
  D-dimer concentration (median of the group): 205.0 ng/mL DDU
[3]; treatment day 14, 300 mg BID plus SoC
  D-dimer concentration (median of the group): 171.0 ng/mL DDU
[3]; treatment day 21, 300 mg BID plus SoC
  D-dimer concentration (median of the group): 208.0 ng/mL DDU
[3]; treatment day 28, 300 mg BID plus SoC
  D-dimer concentration (median of the group): 172.0 ng/mL DDU
[4]; 300 mg BID plus SoC, placebo group 31/43
  disease resolution by Day 14 (patients): 69/82
[4]; clinical study in COVID-19 patients
  effect on hemostasis (clinical parameters or adverse side effects): no evidence
